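48-hour exposure; five concentrations; linearly interpolated endpoints. The concentration for full growth arrest is given as TGI.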
Key:
Experiment in all cases: growth of human tumour cells (NCI), 48 h
KM12 colon = tested on: KM12 colon
LXFL 529 NSCLC = tested on: LXFL 529 NSCLC
HL-60(TB) leukemia = tested on: HL-60(TB) leukemia
M19-MEL melanoma = tested on: M19-MEL melanoma
SR leukemia = tested on: SR leukemia
HOP-62 NSCLC = tested on: HOP-62 NSCLC
DLD-1 colon = tested on: DLD-1 colon
A498 renal = tested on: A498 renal
SK-MEL-2 melanoma = tested on: SK-MEL-2 melanoma
MOLT-4 leukemia = tested on: MOLT-4 leukemia
SK-OV-3 ovarian = tested on: SK-OV-3 ovarian
SNB-19 CNS = tested on: SNB-19 CNS
NCI-H23 lung = tested on: NCI-H23 lung
UACC-62 melanoma = tested on: UACC-62 melanoma
K-562 leukemia = tested on: K-562 leukemia
SNB-78 CNS = tested on: SNB-78 CNS
UACC-257 melanoma = tested on: UACC-257 melanoma
SK-MEL-28 melanoma = tested on: SK-MEL-28 melanoma
ACHN renal = tested on: ACHN renal
HCC-2998 colon = tested on: HCC-2998 colon
SN12C renal = tested on: SN12C renal
UO-31 renal = tested on: UO-31 renal
EKVX NSCLC = tested on: EKVX NSCLC
SF-539 CNS = tested on: SF-539 CNS
MALME-3M melanoma = tested on: MALME-3M melanoma
CCRF-CEM leukemia = tested on: CCRF-CEM leukemia
HT29 colon = tested on: HT29 colon
NCI-H522 lung = tested on: NCI-H522 lung
RXF 393 renal = tested on: RXF 393 renal
M14 melanoma = tested on: M14 melanoma
OVCAR-5 ovarian = tested on: OVCAR-5 ovarian
OVCAR-4 ovarian = tested on: OVCAR-4 ovarian
HCT-116 colon = tested on: HCT-116 colon
KM20L2 colon = tested on: KM20L2 colon
U251 CNS = tested on: U251 CNS
XF 498 CNS = tested on: XF 498 CNS
SF-268 CNS = tested on: SF-268 CNS
TK-10 renal = tested on: TK-10 renal
NCI-H460 lung = tested on: NCI-H460 lung
SNB-75 CNS = tested on: SNB-75 CNS
OVCAR-3 ovarian = tested on: OVCAR-3 ovarian
LOX IMVI melanoma = tested on: LOX IMVI melanoma
A549 NSCLC = tested on: A549 NSCLC
SF-295 CNS = tested on: SF-295 CNS
HOP-92 NSCLC = tested on: HOP-92 NSCLC
COLO 205 colon = tested on: COLO 205 colon
OVCAR-8 ovarian = tested on: OVCAR-8 ovarian
HCT-15 colon = tested on: HCT-15 colon
SW-620 colon = tested on: SW-620 colon
RPMI-8226 leukemia = tested on: RPMI-8226 leukemia
CAKI-1 renal = tested on: CAKI-1 renal
DMS 273 small cell lung = tested on: DMS 273 small cell lung
DMS 114 small cell lung = tested on: DMS 114 small cell lung
IGROV1 ovarian = tested on: IGROV1 ovarian
SK-MEL-5 melanoma = tested on: SK-MEL-5 melanoma
786-0 renal = tested on: 786-0 renal
NCI-H226 lung = tested on: NCI-H226 lung

O=S(O)CCCCCSSSCCCCCS(=O)O
TGI (KM12 colon): > 100 µM | TGI (LXFL 529 NSCLC): 27.9 µM | TGI (HL-60(TB) leukemia): 65 µM | TGI (M19-MEL melanoma): > 100 µM | TGI (SR leukemia): 30.3 µM | TGI (HOP-62 NSCLC): > 100 µM | TGI (DLD-1 colon): > 100 µM | TGI (A498 renal): > 100 µM | TGI (SK-MEL-2 melanoma): 67.8 µM | TGI (MOLT-4 leukemia): 60.8 µM | TGI (SK-OV-3 ovarian): > 100 µM | TGI (SNB-19 CNS): > 100 µM | TGI (NCI-H23 lung): > 100 µM | TGI (UACC-62 melanoma): 55.3 µM | TGI (K-562 leukemia): > 100 µM | TGI (SNB-78 CNS): > 100 µM | TGI (UACC-257 melanoma): > 100 µM | TGI (SK-MEL-28 melanoma): > 100 µM | TGI (ACHN renal): > 100 µM | TGI (HCC-2998 colon): > 100 µM | TGI (SN12C renal): > 100 µM | TGI (UO-31 renal): > 100 µM | TGI (EKVX NSCLC): > 100 µM | TGI (SF-539 CNS): > 100 µM | TGI (MALME-3M melanoma): 94 µM | TGI (CCRF-CEM leukemia): 37.7 µM | TGI (HT29 colon): > 100 µM | TGI (NCI-H522 lung): 85.1 µM | TGI (RXF 393 renal): 41.8 µM | TGI (M14 melanoma): > 100 µM | TGI (OVCAR-5 ovarian): > 100 µM | TGI (OVCAR-4 ovarian): > 100 µM | TGI (HCT-116 colon): 68.1 µM | TGI (KM20L2 colon): > 100 µM | TGI (U251 CNS): > 100 µM | TGI (XF 498 CNS): 36.3 µM | TGI (SF-268 CNS): > 100 µM | TGI (TK-10 renal): 93.8 µM | TGI (NCI-H460 lung): > 100 µM | TGI (SNB-75 CNS): 94.8 µM | TGI (OVCAR-3 ovarian): 78.9 µM | TGI (LOX IMVI melanoma): 62.4 µM

CCNc1cnc2c(n1)c(=O)n(C)c(=O)n2C
TGI (KM12 colon): > 100 µM | TGI (LXFL 529 NSCLC): > 100 µM | TGI (HL-60(TB) leukemia): > 100 µM | TGI (M19-MEL melanoma): > 100 µM | TGI (HOP-62 NSCLC): > 100 µM | TGI (DLD-1 colon): > 100 µM | TGI (A498 renal): > 100 µM | TGI (A549 NSCLC): > 100 µM | TGI (SF-295 CNS): > 100 µM | TGI (HOP-92 NSCLC): > 100 µM | TGI (COLO 205 colon): > 100 µM | TGI (OVCAR-8 ovarian): > 100 µM | TGI (HCT-15 colon): > 100 µM | TGI (SW-620 colon): > 100 µM | TGI (SK-MEL-2 melanoma): > 100 µM | TGI (MOLT-4 leukemia): > 100 µM | TGI (SK-OV-3 ovarian): > 100 µM | TGI (SNB-19 CNS): > 100 µM | TGI (NCI-H23 lung): > 100 µM | TGI (UACC-62 melanoma): > 100 µM | TGI (K-562 leukemia): > 100 µM | TGI (RPMI-8226 leukemia): > 100 µM | TGI (UACC-257 melanoma): > 100 µM | TGI (SK-MEL-28 melanoma): > 100 µM | TGI (ACHN renal): > 100 µM | TGI (CAKI-1 renal): > 100 µM | TGI (HCC-2998 colon): > 100 µM | TGI (SN12C renal): > 100 µM | TGI (UO-31 renal): > 100 µM | TGI (EKVX NSCLC): > 100 µM | TGI (SF-539 CNS): > 100 µM | TGI (DMS 273 small cell lung): > 100 µM | TGI (MALME-3M melanoma): > 100 µM | TGI (CCRF-CEM leukemia): > 100 µM | TGI (HT29 colon): > 100 µM | TGI (NCI-H522 lung): > 100 µM | TGI (DMS 114 small cell lung): > 100 µM | TGI (RXF 393 renal): > 100 µM | TGI (M14 melanoma): > 100 µM | TGI (OVCAR-5 ovarian): > 100 µM | TGI (OVCAR-4 ovarian): > 100 µM | TGI (HCT-116 colon): > 100 µM | TGI (KM20L2 colon): > 100 µM | TGI (U251 CNS): > 100 µM | TGI (XF 498 CNS): > 100 µM | TGI (SF-268 CNS): > 100 µM | TGI (TK-10 renal): > 100 µM | TGI (NCI-H460 lung): > 100 µM | TGI (IGROV1 ovarian): > 100 µM | TGI (SK-MEL-5 melanoma): > 100 µM | TGI (SNB-75 CNS): > 100 µM | TGI (OVCAR-3 ovarian): > 100 µM

CC(C)NC(C)C(C)c1ccccc1 (stereo not given)
TGI (KM12 colon): > 100 µM | TGI (LXFL 529 NSCLC): > 100 µM | TGI (M19-MEL melanoma): > 100 µM | TGI (786-0 renal): > 100 µM | TGI (HOP-62 NSCLC): > 100 µM | TGI (DLD-1 colon): > 100 µM | TGI (A498 renal): > 100 µM | TGI (A549 NSCLC): > 100 µM | TGI (SF-295 CNS): > 100 µM | TGI (COLO 205 colon): > 100 µM | TGI (OVCAR-8 ovarian): > 100 µM | TGI (SW-620 colon): > 100 µM | TGI (SK-MEL-2 melanoma): > 100 µM | TGI (MOLT-4 leukemia): > 100 µM | TGI (SK-OV-3 ovarian): > 100 µM | TGI (SNB-19 CNS): > 100 µM | TGI (NCI-H23 lung): > 100 µM | TGI (UACC-62 melanoma): > 100 µM | TGI (K-562 leukemia): > 100 µM | TGI (RPMI-8226 leukemia): > 100 µM | TGI (UACC-257 melanoma): > 100 µM | TGI (SK-MEL-28 melanoma): > 100 µM | TGI (ACHN renal): > 100 µM | TGI (CAKI-1 renal): > 100 µM | TGI (HCC-2998 colon): > 100 µM | TGI (SN12C renal): > 100 µM | TGI (UO-31 renal): > 100 µM | TGI (EKVX NSCLC): > 100 µM | TGI (SF-539 CNS): > 100 µM | TGI (DMS 273 small cell lung): > 100 µM | TGI (MALME-3M melanoma): > 100 µM | TGI (CCRF-CEM leukemia): > 100 µM | TGI (HT29 colon): > 100 µM | TGI (NCI-H522 lung): > 100 µM | TGI (DMS 114 small cell lung): > 100 µM | TGI (RXF 393 renal): > 100 µM | TGI (M14 melanoma): > 100 µM | TGI (OVCAR-4 ovarian): > 100 µM | TGI (HCT-116 colon): > 100 µM | TGI (KM20L2 colon): > 100 µM | TGI (U251 CNS): > 100 µM | TGI (XF 498 CNS): > 100 µM | TGI (SF-268 CNS): > 100 µM | TGI (TK-10 renal): > 100 µM | TGI (NCI-H460 lung): > 100 µM | TGI (IGROV1 ovarian): > 100 µM | TGI (SK-MEL-5 melanoma): > 100 µM | TGI (SNB-75 CNS): > 100 µM | TGI (OVCAR-3 ovarian): > 100 µM | TGI (LOX IMVI melanoma): > 100 µM | TGI (NCI-H226 lung): > 100 µM
